From PubChem BioAssay AID2044 (Broad Institute, 2009)
Inconclusive results are not listed.

Tested on: T. cruzi beta-gal in NIH3T3, GalScreen luminescence, 90 h
Assay: Trypanosoma cruzi growth suppression in host cells – NIH3T3 host cells, beta-gal luminescence, confirmation (AID 2044)

C#CCOCCOCCOCCNc1nc(N2CCN(C(=O)CCCCCCCCCCNC(=O)Cn3cc(C[C@@H](C)O)nn3)CC2)nc(N2CCN(C(=O)CCCCCCCCCCNC(=O)[C@H](CCCN=C(N)N)n3cc(C[C@@H](C)CC)nn3)CC2)n1
EC50: 0.967 µM
